Assays:
22Rv1 cells = assay: Prostate cancer (CRPC) mouse xenograft model, CORT125134 with castration; type: in vivo; details: CORT125134 30 mg/kg p.o. daily for 21 days
Experimental: 22Rv1 cells (10 million cells per mouse) were injected in the right flank of male Balb/c nude mice. When the tumors reached a volume of 100-200 mm^3 the mice were randomized into groups of 10 and then 2 of the 3 groups were castrated. Treatment was initiated the day after castration as follows: group 1 (not castrated) received vehicle, group 2 (castrated) received vehicle, and group 3 (castrated) received CORT125134 30 mg/kg orally (p.o.) daily for 21 days. Tumor volumes were measured 3 times a week as described previously. Any mouse in poor condition or with a tumor exceeding 3000 mm^3 was terminated. The results were analyzed as indicated in Example 2 above. Data represent mean+SEM.

MDA-MB-231 cells = assay: Triple negative breast cancer (TNBC) mouse xenograft model, CORT125134 with paclitaxel; type: in vivo, mice
Experimental: MDA-MB-231 cells (10 million cells per mouse) were injected orthotopically in the right mammary fat pad in groups of female Balb/c nude mice. When the tumors reached a volume of 100-200 mm^3, the mice were randomized into groups of 10 and treatment was initiated. Mice were treated as follows: group 1 received vehicle daily, group 2 received paclitaxel 5 mg/kg i.v. every 4 days, group 3 received paclitaxel 5 mg/kg i.v. every 4 days and CORT125134 30 mg/kg p.o. daily. Tumor volumes were measured 3 times a week in 2 dimensions using a caliper and the volume expressed in mm^3 using the formula V=0.5 a×b2 where a and b are the long and short diameters of the tumor, respectively. Dosing was continued for 28 days, but any mouse in poor condition or with a tumor exceeding 3000 mm^3 was terminated. For comparison between two groups an independent sample t-test was used; for comparison among three or more groups a one-way ANOVA was performed followed by multiple comparison procedures. A p-value <0.05 was considered to be statistically significant. The effect of CORT125134 in combination with paclitaxel in a triple negative breast cancer (TNBC) mouse xenograft model is shown in FIG. 2. Data represent mean+SEM.

[1] = system: human HeLa cervical cancer cells; assay: Implanted HeLa cervical cancer tumor growth in mice, CORT125134 and paclitaxel; type: in vivo
Experimental: Suspensions of human HeLa cervical cancer cells were injected subcutaneously into the right flank of 5-6 week old immunosuppressed female mice (BALB/c nude), five million cells per mouse. Tumors were allowed to grow until they reached a volume of 100-200 mm^3. Mice were then grouped into five groups, ten (10) per group. Group 1 was dosed with the paclitaxel vehicle (sterile saline) intravenously (i.v.) every 4 days and the CORT125134 vehicle orally (p.o.) (10% DMSO, 0.1% Tween 80 and 89.9% HPMC (0.5%), 10 ml/kg) every 4 days. Group 2 was dosed with paclitaxel (7.5 mg/kg) i.v. every 4 days. Group 3 was dosed with paclitaxel i.v. every 4 days and with CORT125134 (30 mg/kg) p.o. the day before the administration of paclitaxel and the same day as the administration of paclitaxel. Group 4 received paclitaxel (15 mg/kg) i.v. every 4 days. Group 5 received paclitaxel (15 mg/kg) i.v. every 4 days and CORT125134 (30 mg/kg) p.o. the day before and the day of paclitaxel (15 mg/kg) i.v. administration.
The longest (L) and shortest (S) diameters of the tumors were measured three times a week with electronic calipers and tumor volume was calculated using the formula for an ellipsoid sphere: S^2×L×(0.5). The tumor growth data are shown in FIG. 1, in which the mean tumor volume for each group of mice is plotted against the number of days of tumor growth since initiation of the treatment. All treatments provide benefit compared to vehicle alone.

SK-OV-3 cells = assay: Ovarian cancer mouse xenograft model, CORT125134 with gemcitabine/carboplatin; type: in vivo, mice
Experimental: CORT125134 was administered intraperitoneally (i.p.) on days 43, 44, 50 and 51, and gemcitabine/carboplatin was administered i.p. on days 44 and 51. Data represent mean values. SK-OV-3 cells (5 million cells per mouse) were injected in the right flank of female Balb/c nude mice. When tumors reached a volume of 200 mm^3 the mice were randomized into groups of 10 and treatment was initiated. Mice were treated as follows: group 1 received vehicle on dosing days 1, 2, 8 and 9, group 2 received gemcitabine (80 mg/kg i.p.) and carboplatin (15 mg/kg i.p.) on dosing days 2 and 9 and group 3 received gemcitabine/carboplatin in the same regimen as group 2, +CORT125134 (20 mg/kg i.p.) on dosing days 1, 2, 8 and 9. Tumor volumes were measured 3 times a week and tumor volumes were calculated as detailed above. Any mouse in poor condition or with a tumor exceeding 2000 mm^3 was terminated. The results were analyzed as indicated in Example 2 above.

cervical cancer = assay: Treating a patient having cervical cancer with SGRM and a chemotherapeutic agent; type: in vivo, human; details: CORT125134 200 mg once a day for eight weeks with nab-paclitaxel 80 mg per square meter i.v. days 1, 8, 15 of 28-day cycle; one patient
Experimental: A patient complains of upper abdomen pain. They are experiencing loss of appetite, nausea and vomiting episodes, and significant weight loss. […] The suspected tumor is confirmed by histological analysis to be a cancerous tumor. The patient is treated with CORT125134 at a dose of 200 mg once a day for eight weeks in combination with an intravenous infusion of nab-paclitaxel at a dose of 80 mg per square meter of body-surface area as an intravenous infusion over 30 minutes on days 1, 8, and 15 of every 28-day cycle. Tumor load is monitored using enhanced MRI before, during and after the treatment. The imaging indicate that tumor size is decreasing, and the reduction is more than 50% at the end of the treatment period.

[2] = paclitaxel 5 mg/kg i.v. every 4 days + CORT125134 30 mg/kg p.o. daily
[3] = gemcitabine/carboplatin + CORT125134 20 mg/kg i.p.

Row | Compound | effect on tumor growth, CORT125134 in castrated mice compared to mice not castrated (22Rv1 cells) | p, CORT125134 in castrated mice compared to mice not castrated (22Rv1 cells) | p, castration and CORT125134 vs castration alone (22Rv1 cells; castrated mice) | tumor growth, combination of castration and CORT125134 compared with castration alone (22Rv1 cells; castrated mice) | p, combination compared to paclitaxel alone (MDA-MB-231 cells; [2]) | p, combination compared to vehicle treated mice (MDA-MB-231 cells; [2]) | effect on tumor growth, combination of paclitaxel and CORT125134 (MDA-MB-231 cells; paclitaxel 5 mg/kg i.v. every 4 days + CORT125134 30 mg/kg p.o. daily, 28 days) | p, tumor growth comparison Group 3 vs Group 5 ([1]; CORT125134 30 mg/kg + paclitaxel 15 mg/kg (Group 5) vs CORT125134 30 mg/kg + paclitaxel 7.5 mg/kg (Group 3)) | p, tumor growth comparison Group 2 vs Group 3 ([1]; CORT125134 30 mg/kg p.o. day before and day of paclitaxel + paclitaxel 7.5 mg/kg i.v. every 4 days (Group 3) vs paclitaxel 7.5 mg/kg alone (Group 2)) | p, tumor growth comparison Group 4 vs Group 5 ([1]; CORT125134 30 mg/kg p.o. day before and day of paclitaxel + paclitaxel 15 mg/kg i.v. every 4 days (Group 5) vs paclitaxel 15 mg/kg alone (Group 4)) | tumor growth, combination of paclitaxel and CORT125134 compared with paclitaxel alone ([1]; CORT125134 30 mg/kg p.o. with paclitaxel 7.5 or 15 mg/kg i.v., either dose of paclitaxel) | effect on tumor growth, combination of gemcitabine/carboplatin with CORT125134 (SK-OV-3 cells; gemcitabine 80 mg/kg + carboplatin 15 mg/kg i.p. dosing days 2, 9 + CORT125134 20 mg/kg i.p. dosing days 1, 2, 8, 9) | p, combination compared to vehicle (SK-OV-3 cells; [3]) | p, combination compared with carboplatin/gemcitabine (SK-OV-3 cells; [3]) | reduction of tumor size at the end of the treatment period (enhanced MRI) (cervical cancer) | p compared with vehicle treated mice, paclitaxel alone (MDA-MB-231 cells; paclitaxel 5 mg/kg i.v. every 4 days) | effect on tumor growth, paclitaxel alone (MDA-MB-231 cells; paclitaxel 5 mg/kg i.v. every 4 days, 28 days) | p, tumor growth comparison Group 1 vs Group 2 ([1]; paclitaxel 7.5 mg/kg i.v. every 4 days (Group 2) vs vehicle (Group 1)) | p, tumor growth comparison Group 1 vs Group 4 ([1]; paclitaxel 15 mg/kg i.v. every 4 days (Group 4) vs vehicle (Group 1))
1 | Cn1cc(S(=O)(=O)N2CCC3=Cc4c(cnn4-c4ccc(F)cc4)C[C@]3(C(=O)c3cc(C(F)(F)F)ccn3)C2)cn1 [CORT125134, (R)-(1-(4-fluorophenyl)-6-((1-methyl-1H-pyrazol-4-yl)sulfonyl)-4,4a,5,6,7,8-hexahydro-1H-pyrazolo[3,4-g]isoquinolin-4a-yl)(4-(trifluoromethyl)pyridin-2-yl)methanone] | inhibited tumor growth | < 0.0001 | < 0.05 | more effective than castration alone | < 0.05 | < 0.05 | significant inhibition of tumor growth | 0.0009 | 0.008 | <0.0001 | more effective than paclitaxel alone | significant inhibition of tumor growth | < 0.001 | < 0.01 | more than 50% |  |  |  | 
2 | CC(=O)O[C@H]1C(=O)[C@@]2(C)[C@H]([C@H](OC(=O)c3ccccc3)[C@]3(O)C[C@H](OC(=O)[C@H](O)[C@@H](NC(=O)c4ccccc4)c4ccccc4)C(C)=C1C3(C)C)[C@]1(OC(C)=O)CO[C@@H]1C[C@@H]2O [paclitaxel, reference compound] |  |  |  |  |  |  |  |  |  |  |  |  |  |  |  | not significant | ineffective | 0.0281 | 0.0006

— US12285425B2, “Glucocorticoid receptor modulators to treat cervical cancer” (Corcept Therapeutics, Inc., priority 2017, dated 2025)
